# According to patent US20240269109A1 (STICHTING MEDISCHE KLINIEK VELSEN, priority 2021, published 2024):
# Key:
# [1] = high doses for local anesthesia; cited from earlier work
# [2] = off-label patient trial, oromucosal/sublingual formulation; assay type: in vivo, human
# Procedure: The formulation of the invention was used “off-label” to treat a number of patients to determine its effect as set out in Example 2.
# In the Netherlands, 22 patients were treated with the formulation of Example 1a as follows: […]
# 10 patients had COVID-19 symptoms (and were positive and were seen by their general practitioner). All 10 patients presented with early signs of respiratory distress; tachypnea (more than 30 breaths per minute), high fever and dry cough and a decreased Sp02<90.
# 6 patients had post-COVID respiratory complaints. They were experiencing long-term complaints, ranging from coughing, fatigue and shortness of breath to anxiety and physical limitations.
# 6 patients suffered with various autoimmune diseases as follows: • 1 patient had rheumatoid arthritis. • 1 patient had scleroderma; • 1 patient had dermatomyositis; • 1 patient had morbus Parkinson; • 2 patients had psoriasis.
# All patients were given the formulation as described in Example 1a above, up to 6 times a day, for up to 2 weeks.
structure (smiles),measurement,setting,value
CCN(CC)CC(=O)Nc1c(C)cccc1C [lidocaine],dose at which methemoglobinemia can occur,[1],4-5 mg/kg bodyweight
same,response of COVID-19 patients with early signs of respiratory distress,"[2]; 10 patients, sublingual",responded well
same,effective adult unit dose,"[2]; delivered oromucosally or sublingually, 4-6 times a day",60 to 100 mg
